Results as given in article PMC6934184, “Selective DNA-PKcs inhibition extends the therapeutic index of localized radiotherapy and chemotherapy” (The Journal of Clinical Investigation, 2019).

Biological target: T1, CLK2 (Homo sapiens, UniProt P49760)
T1 construct: purchased Thermo Fisher Scientific (Life Technologies) SelectScreen
Assay: SelectScreen Z'LYTE
Format: biochemical
Method in brief: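 Percent values come from Thermo SelectScreen profiling of NU5455, combining activity and binding assays. CSF1R was run in Z'LYTE format at Km app ATP, and CAMK1 in Adapta format with ATP listed at 10.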

T1 sequence (P49760 whole entry): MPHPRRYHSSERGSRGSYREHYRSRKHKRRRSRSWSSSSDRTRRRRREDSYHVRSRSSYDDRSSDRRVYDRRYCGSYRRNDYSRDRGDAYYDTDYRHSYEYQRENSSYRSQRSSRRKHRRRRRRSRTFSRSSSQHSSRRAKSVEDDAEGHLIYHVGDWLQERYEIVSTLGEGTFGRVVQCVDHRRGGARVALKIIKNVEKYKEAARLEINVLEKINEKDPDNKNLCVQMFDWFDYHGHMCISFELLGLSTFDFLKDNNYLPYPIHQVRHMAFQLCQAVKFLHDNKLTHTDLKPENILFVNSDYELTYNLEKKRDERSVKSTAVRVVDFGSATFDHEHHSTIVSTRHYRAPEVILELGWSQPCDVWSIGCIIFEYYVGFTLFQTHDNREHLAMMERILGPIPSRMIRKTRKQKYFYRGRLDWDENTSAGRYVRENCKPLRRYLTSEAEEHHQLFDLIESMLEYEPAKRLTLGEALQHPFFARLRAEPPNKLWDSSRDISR

CN(C(=O)CN1CCOCC1)c1ccc2sc3c(-c4cccc5c(=O)cc(N6CC7CCC(C6)O7)oc45)cccc3c2c1 [NU5455]
inhibition at 1 µM: 4.1%
